Measured values reported in patent publication US20250163016A1, “PYRIDINE DERIVATIVE, PREPARATION METHOD THEREFOR AND USE THEREOF” (CHENGDU EASTON BIOPHARMACEUTICALS CO., LTD., priority 2022, published 2025).

Key:
[1] = test system: Kasumi-1 cell subcutaneous heterograft tumor; assay: In-vivo efficacy in Kasumi-1 cell subcutaneous heterograft tumor model; conditions: for weight of the mice after administration / tolerance of the tested animals: Kasumi-1 xenograft mice; for weight of the mice after administration: FIG. 3; for tolerance of the tested animals: qd p.o. 20 days; for TGI: Kasumi-1 xenograft, qd, p.o., 20 days
Experimental: • RPMI 1640 culture medium containing 20% fetal bovine serum (FBS), 37° C., 5% CO2.
• Solvent: 0.5% methylcellulose aqueous solution; • Tested drug: compounds 16 and 36.
CB17 SCID mice, female, 6-8 weeks, weight about 18-22 grams, and each mouse was subcutaneously inoculated with 0.1 mL (1×10^7 cells+matrigel) of Kasumi-1 cells on the right side. When an average volume of tumors reached 100-200 cubic millimeters, group administration was performed, see the table below (Table 12) for administration dosages and methods. The tumor volume was measured twice a week, the weights of the mice as well as lengths and widths of tumors were recorded in each time of measurement, and the tumor volume=length×width×width/2 mm^3. When the average tumor volume of a solvent group grew to 3000 cubic millimeters or above, administration was ended, each group of mice was killed and dissected to take out tumor lumps, the tumor weight of each mouse was weighed and the tumor volume was measured, and an average tumor volume difference between a tested compound group and the solvent group was obtained via comparison. The tumor suppression effects of the compounds were evaluated with TGI (%), which could reflect a tumor growth inhibition rate.
Calculation of TGI (%):TGI (%)=[1−(current average tumor volume of compounds−average tumor volume at the beginning of compounds)/(current average tumor volume of solvent group−average tumor volume at the beginning of solvent group)]×100%

hERG ion channel = molecular target: T1, hERG ion channel (Homo sapiens, UniProt Q12809); assay: In-vitro hERG inhibitory activity (whole cell patch clamp, HEK293 cells); assay type: cell-based; conditions: HEK293 cells stably expressing hERG channels, read-out: IC50 on hERG current
T1 construct: expressed in transfected cells; host or cells: HEK293
T1 sequence (Q12809 whole entry): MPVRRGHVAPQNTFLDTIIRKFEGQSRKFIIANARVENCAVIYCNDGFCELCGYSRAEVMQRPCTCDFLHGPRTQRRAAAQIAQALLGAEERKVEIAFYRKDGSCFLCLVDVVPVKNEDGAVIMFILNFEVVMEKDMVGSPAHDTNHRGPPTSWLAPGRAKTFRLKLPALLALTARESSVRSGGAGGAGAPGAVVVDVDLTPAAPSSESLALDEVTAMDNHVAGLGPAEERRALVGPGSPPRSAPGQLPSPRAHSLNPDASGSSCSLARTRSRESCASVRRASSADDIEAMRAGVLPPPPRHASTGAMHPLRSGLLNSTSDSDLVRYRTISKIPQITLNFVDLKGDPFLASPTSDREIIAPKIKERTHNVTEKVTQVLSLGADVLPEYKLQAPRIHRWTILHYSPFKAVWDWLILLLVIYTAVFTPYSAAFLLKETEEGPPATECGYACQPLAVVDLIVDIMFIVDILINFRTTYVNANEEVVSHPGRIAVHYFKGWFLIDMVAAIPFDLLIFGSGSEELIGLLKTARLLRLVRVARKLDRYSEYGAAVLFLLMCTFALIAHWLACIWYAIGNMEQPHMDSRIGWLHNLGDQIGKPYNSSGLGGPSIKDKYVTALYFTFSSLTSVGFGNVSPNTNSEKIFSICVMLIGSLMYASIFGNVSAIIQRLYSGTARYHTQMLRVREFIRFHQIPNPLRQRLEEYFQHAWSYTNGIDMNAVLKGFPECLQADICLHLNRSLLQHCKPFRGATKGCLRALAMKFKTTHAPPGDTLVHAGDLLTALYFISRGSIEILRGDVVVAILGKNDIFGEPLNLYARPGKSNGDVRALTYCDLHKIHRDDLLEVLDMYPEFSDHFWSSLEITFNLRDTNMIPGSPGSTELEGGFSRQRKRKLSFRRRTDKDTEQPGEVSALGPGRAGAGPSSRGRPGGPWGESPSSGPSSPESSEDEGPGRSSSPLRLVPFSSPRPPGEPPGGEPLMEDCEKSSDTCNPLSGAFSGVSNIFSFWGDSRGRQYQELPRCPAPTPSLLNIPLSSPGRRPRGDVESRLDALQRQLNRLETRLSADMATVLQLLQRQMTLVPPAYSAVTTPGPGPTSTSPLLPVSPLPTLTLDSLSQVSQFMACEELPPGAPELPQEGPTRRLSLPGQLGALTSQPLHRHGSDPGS
Experimental: A whole cell sheet technology was used to detect the blocking effects of compounds on hERG channels on HEK293 cells stably expressing hERG channels, and a median inhibitory concentration IC50 of the compound was determined. As part of cardiac safety evaluation, its safety in-vitro screening for cardiac toxicity was preliminarily evaluated.
• HEK293 cells stably expressing hEGR ion channels
Electrodes were drawn using PC-10 (Narishige, Japan). The whole cell patch clamp was used for recording, and noise was filtered using one fifth of a sampling frequency. The cells were clamped at −80 mV, then depolarized to 40 mV using square waves lasting for 4 seconds, and then hyperpolarized to −40 mV using square waves lasting for 2 seconds to obtain an hERG tail current. This procedure was repeated every 20 seconds. The hERG tail current was a pure hERG current. A maximum current triggered by the second square wave was detected, after the maximum current was stable, the compounds were tested through perfusion, and after reaction was stable, a blocking intensity was calculated.

Structure (SMILES) | weight of the mice after administration [1] | tolerance of the tested animals [1] | TGI ([1]; 5 mg/Kg) [%] | IC50 (hERG ion channel) [µM] | TGI ([1]; 3.5 mg/Kg) [%]
CC(C)(O)Cn1nc(F)c2cc(-c3c(C#N)cc(N4CCC(N)CC4)nc3-c3ccc(C#N)c(F)c3)c(F)cc21 [Compound 36, 6-(4-aminopiperid-1-yl)-2-(4-cyano-3-fluorophenyl)-3-(3,6-difluoro-1-(2-hydroxyl-2-methylpropyl)-1H-indazol-5-yl)isonicotinonitrile] | does not decrease | good tolerance | 84.87 |  | 
CC(C)(O)Cn1ncc2cc(-c3c(C#N)cc(N4CCC(N)CC4)nc3-c3ccc(C#N)c(F)c3)c(F)cc21 [Compound 16, 6-(4-aminopiperid-1-yl)-2-(4-cyano-3-fluorophenyl)-3-(6-fluoro-1-(2-hydroxyl-2-methylpropyl)-1H-indazol-5-yl)isonicotinonitrile] | does not decrease | good tolerance | 86.13 | > 10 | 78.28
